SMILES strings stand for the structures.

As usually defined, the IC50 is the concentration at which inhibition is half-maximal. Low values mean greater potency, high ones weaker potency.

The target of the assay is USP1 (construct USP1 (I-785, GG670, 671AA)/UAF1 (I-677)-Flag) (Homo sapiens (Human), UniProt O94782, G670A/G671A). Put plainly: Ubiquitin-Rhodamine 110 assay for USP1 activity. The format is biochemical. To be noted: USP1/UAF1 25 pM, Ub-Rh110 25 nM, 30 min preincubation. In outline: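 Ub-Rh110 (25 nM, ≪Km) cleavage read at ex 485/em 535 in Tris pH 8.0, CaCl2, GSH, Prionex, Triton X-100. The screen used 10 µM compound, 100 pM USP1/UAF1 and 45 min at RT.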
USP1 (construct USP1 (I-785, GG670, 671AA)/UAF1 (I-677)-Flag), sequence (O94782 whole entry G670A/G671A): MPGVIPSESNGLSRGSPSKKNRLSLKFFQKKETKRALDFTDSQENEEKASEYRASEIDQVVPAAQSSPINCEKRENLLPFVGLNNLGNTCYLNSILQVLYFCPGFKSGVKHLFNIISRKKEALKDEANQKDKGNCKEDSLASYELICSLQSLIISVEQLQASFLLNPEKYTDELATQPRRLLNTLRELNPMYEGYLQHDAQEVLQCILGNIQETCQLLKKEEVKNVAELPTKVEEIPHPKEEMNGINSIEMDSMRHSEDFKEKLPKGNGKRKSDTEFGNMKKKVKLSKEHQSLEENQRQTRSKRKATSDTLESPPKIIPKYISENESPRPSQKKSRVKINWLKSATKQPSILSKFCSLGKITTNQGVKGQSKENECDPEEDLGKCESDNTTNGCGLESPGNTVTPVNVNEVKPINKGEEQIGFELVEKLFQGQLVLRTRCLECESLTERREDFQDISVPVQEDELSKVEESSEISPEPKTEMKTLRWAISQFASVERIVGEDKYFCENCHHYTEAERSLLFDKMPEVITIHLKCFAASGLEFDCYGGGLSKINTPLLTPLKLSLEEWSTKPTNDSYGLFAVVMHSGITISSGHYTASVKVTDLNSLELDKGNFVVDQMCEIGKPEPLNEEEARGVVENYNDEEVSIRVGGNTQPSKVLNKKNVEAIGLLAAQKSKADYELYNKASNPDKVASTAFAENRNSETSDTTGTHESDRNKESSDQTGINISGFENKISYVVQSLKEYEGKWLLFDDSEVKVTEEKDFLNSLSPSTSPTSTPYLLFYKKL
USP1 (construct USP1 (I-785, GG670, 671AA)/UAF1 (I-677)-Flag), sequence (Q8TAF3 whole entry partner): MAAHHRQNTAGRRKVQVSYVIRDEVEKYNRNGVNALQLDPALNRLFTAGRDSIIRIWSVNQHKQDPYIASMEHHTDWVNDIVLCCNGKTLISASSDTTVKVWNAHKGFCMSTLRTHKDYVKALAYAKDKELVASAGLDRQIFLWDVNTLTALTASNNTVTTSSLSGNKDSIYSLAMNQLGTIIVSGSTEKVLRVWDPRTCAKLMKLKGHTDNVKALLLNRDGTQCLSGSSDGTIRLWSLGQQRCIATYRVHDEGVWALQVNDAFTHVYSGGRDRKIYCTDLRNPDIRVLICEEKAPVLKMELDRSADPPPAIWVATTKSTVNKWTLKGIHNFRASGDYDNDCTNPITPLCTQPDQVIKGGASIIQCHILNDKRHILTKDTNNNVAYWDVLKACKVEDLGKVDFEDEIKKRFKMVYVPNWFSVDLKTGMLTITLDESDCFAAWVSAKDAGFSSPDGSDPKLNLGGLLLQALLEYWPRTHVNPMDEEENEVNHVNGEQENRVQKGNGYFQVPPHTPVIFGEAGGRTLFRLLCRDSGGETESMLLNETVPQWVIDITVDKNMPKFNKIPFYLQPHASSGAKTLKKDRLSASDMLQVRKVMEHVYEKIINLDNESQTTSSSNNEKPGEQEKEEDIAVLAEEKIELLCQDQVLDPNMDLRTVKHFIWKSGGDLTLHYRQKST
As to `CC(C)c1ccccc1-c1ncc2c(n1)n(Cc1ccc(-c3ccc(CCN(C)C)cc3)cc1)c(=O)n2C` [Compound I-262, 9-((4′-(2-(dimethylamino)ethyl)-[1,1′-biphenyl]-4-yl)methyl)-2-(2-isopropylphenyl)-7-methyl-7,9-dihydro-8H-purin-8-one], the IC50 was in the range of 50 to 200 nM.

The compound `CC(C)c1ccccc1-c1ncc2c(n1)n(Cc1ccc(-c3cccc(OCCN(C)C)c3)cc1)c(=O)n2C` [Compound I-260, 9-((3′-(2-(dimethylamino)ethoxy)-[1,1′-biphenyl]-4-yl)methyl)-2-(2-isopropylphenyl)-7-methyl-7,9-dihydro-8H-purin-8-one] returned an IC50 of 50 to 200 nM.

`COC(C)CCOc1ncccc1-c1ncc2[nH]c(=O)n(Cc3ccc(-c4nc(C(F)(F)F)cn4C)cc3)c2n1` (stereo not drawn) [Compound I-426, 2-(2-(3-methoxybutoxy)pyridin-3-yl)-9-(4-(1-methyl-4-(trifluoromethyl)-1H-imidazol-2-yl)benzyl)-7,9-dihydro-8H-purin-8-one] gave an IC50 below 50 nM.

`CC(=O)N1CCC(c2cnc(-c3ccc(Cn4c(=O)[nH]c5cnc(-c6ccccc6C(C)C)nc54)cc3)n2C)CC1` [Compound I-473, 9-(4-(5-(1-acetylpiperidin-4-yl)-1-methyl-lH-imidazol-2-yl)benzyl)-2-(2-isopropylphenyl)-7,9-dihydro-8H-purin-8-one] yielded an IC50 below 50 nM.

The compound `CC(C)c1ccccc1-c1ncc2c(n1)n(Cc1ccc(-c3cccc4nccn34)cc1)c(=O)n2C` [Compound I-270, 9-(4-(imidazo[1,2-a]pyridin-5-yl)benzyl)-2-(2-isopropylphenyl)-7-methyl-7,9-dihydro-8H-purin-8-one] came in with an IC50 of 200 to 2000 nM.

`CC(C)c1ccccc1-c1ncc2[nH]c(=O)n(Cc3ccc(-n4cccn4)c(F)c3)c2n1` [Compound I-177, 9-(3-fluoro-4-(1H-pyrazol-1-yl)benzyl)-2-(2-isopropylphenyl)-7,9-dihydro-8H-purin-8-one] returned an IC50 below 50 nM.

Turning to `CC(C)c1ccccc1-c1ncc2[nH]c(=O)n(Cc3ccc(-n4ccc(N5CCNCC5)n4)cc3)c2n1` [Compound I-432, 2-(2-isopropylphenyl)-9-(4-(3-(piperazin-1-yl)-1H-pyrazol-1-yl)benzyl)-7,9-dihydro-8H-purin-8-one], the IC50 lay within 200 to 2000 nM.

Regarding `Cc1nnn(-c2ccc(Cn3c(=O)[nH]c4cnc(-c5ccccc5C(C)C)nc43)cc2)n1` [Compound I-168, 2-(2-isopropylphenyl)-9-(4-(5-methyl-2H-tetrazol-2-yl)benzyl)-7,9-dihydro-8H-purin-8-one], the IC50 lay within 50 to 200 nM.

Consider `O=c1[nH]c2cnc(-c3ccccc3OCC3CC3)nc2n1Cc1ccc(-n2cccn2)cc1` [Compound I-23, 9-(4-(1H-pyrazol-1-yl)benzyl)-2-(2-(cyclopropylmethoxy)phenyl)-7,9-dihydro-8H-purin-8-one], for which the IC50 fell in the range of 50 to 200 nM.

Compound `Cn1cc(C(F)(F)F)nc1-c1ccc(Cn2c(=O)[nH]c3cnc(-c4cccnc4NC4CCOCC4)nc32)cc1` [Compound I-321, 9-(4-(1-methyl-4-(trifluoromethyl)-1H-imidazol-2-yl)benzyl)-2-(2-((tetrahydro-2H-pyran-4-yl)amino)pyridin-3-yl)-7,9-dihydro-8H-purin-8-one] had an IC50 of 200 to 2000 nM.

In turn, `Cc1nc(S(=O)(=O)N(C)c2ccc(Cn3c(=O)n(C)c4cnc(-c5ccccc5C(C)C)nc43)cc2)cn1C` [Compound I-458, N-(4-((2-(2-isopropylphenyl)-7-methyl-8-oxo-7,8-dihydro-9H-purin-9-yl)methyl)phenyl)-N,1,2-trimethyl-1H-imidazole-4-sulfonamide] came in with an IC50 of 200 to 2000 nM.

Compound `CC(C)C(=O)N1CCC(Cn2c(=O)n(C)c3cnc(-c4ccccc4C(C)C)nc32)CC1` [Compound I-462, 9-((1-isobutyrylpiperidin-4-yl)methyl)-2-(2-isopropylphenyl)-7-methyl-7,9-dihydro-8H-purin-8-one] came in with an IC50 above 2000 nM.

With `CC(C)c1ccccc1-c1ncc2c(n1)n(Cc1ccc(-c3nc(C(F)(F)F)cn3C3COC3)cc1)c(=O)n2C` [Compound I-110, 2-(2-isopropylphenyl)-7-methyl-9-(4-(1-(oxetan-3-yl)-4-(trifluoromethyl)-1H-imidazol-2-yl)benzyl)-7,9-dihydro-8H-purin-8-one], the IC50 was below 50 nM.

The compound `CNC(=O)N1CCC(c2ccn(-c3ccc(Cn4c(=O)[nH]c5cnc(-c6ccccc6C(C)C)nc54)cc3)n2)CC1` [Compound I-480, 4-(1-(4-((2-(2-isopropylphenyl)-8-oxo-7,8-dihydro-9H-purin-9-yl)methyl)phenyl)-1H-pyrazol-3-yl)-N-methylpiperidine-1-carboxamide] had an IC50 below 50 nM.

Compound `COc1ccnn1-c1ccc(Cn2c(=O)[nH]c3cnc(-c4ccccc4C(C)C)nc32)cc1` [Compound I-206, 2-(2-isopropylphenyl)-9-(4-(5-methoxy-1H-pyrazol-1-yl)benzyl)-7,9-dihydro-8H-purin-8-one] displayed an IC50 below 50 nM.

For `Cn1cc(C(F)(F)F)nc1-c1ccc(Cn2c(=O)[nH]c3cnc(-c4cccc5cnn(C)c45)nc32)cc1` [Compound I-44, 2-(1-methyl-1H-indazol-7-yl)-9-(4-(1-methyl-4-(trifluoromethyl)-1H-imidazol-2-yl)benzyl)-7,9-dihydro-8H-purin-8-one], the IC50 is below 50 nM.

Take `CC(C)N(C)c1ncccc1-c1ncc2[nH]c(=O)n(Cc3ccc(-c4nc(C(F)(F)F)cn4C)cc3)c2n1` [Compound I-330, 2-(2-(isopropyl(methyl)amino)pyridin-3-yl)-9-(4-(1-methyl-4-(trifluoromethyl)-1H-imidazol-2-yl)benzyl)-7,9-dihydro-8H-purin-8-one]: the IC50 was in the range of 50 to 200 nM.

As for `CC(C)Nc1ncccc1-c1ncc2[nH]c(=O)n(Cc3ccc(-c4nc(C(F)(F)F)cn4C)cc3)c2n1` [Compound I-313, 2-(2-(isopropylamino)pyridin-3-yl)-9-(4-(1-methyl-4-(trifluoromethyl)-1H-imidazol-2-yl)benzyl)-7,9-dihydro-8H-purin-8-one], the IC50 is below 50 nM.

In the case of `Cn1cc(C(F)(F)F)nc1-c1ccc(Cn2c(=O)n(C3CC3)c3cnc(-c4ccccc4C4CC4)nc32)cc1` [Compound I-100, 7-cyclopropyl-2-(2-cyclopropylphenyl)-9-(4-(1-methyl-4-(trifluoromethyl)-1H-imidazol-2-yl)benzyl)-7,9-dihydro-8H-purin-8-one], the IC50 is below 50 nM.

As to `CC(C)NC(=O)N(C)c1ccc(Cn2c(=O)n(C)c3cnc(-c4ccccc4C(C)C)nc32)cc1` [Compound I-484, 3-isopropyl-1-(4-((2-(2-isopropylphenyl)-7-methyl-8-oxo-7,8-dihydro-9H-purin-9-yl)methyl)phenyl)-1-methylurea], the IC50 is 200 to 2000 nM.

In turn, `Cc1nnc(-c2ccc(Cn3c(=O)[nH]c4cnc(-c5cccc(F)c5C(C)C)nc43)cc2)o1` [Compound I-189, 2-(3-fluoro-2-isopropylphenyl)-9-(4-(5-methyl-1,3,4-oxadiazol-2-yl)benzyl)-7,9-dihydro-8H-purin-8-one] had an IC50 below 50 nM.

In the case of `CNc1nc(-c2cccnc2OC(F)F)nc2c1[nH]c(=O)n2Cc1ccc(-c2nc(C(F)(F)F)cn2C)cc1` [Compound I-531, 2-(2-(Difluoromethoxy)pyridin-3-yl)-9-(4-(1-methyl-4-(trifluoromethyl)-1H-imidazol-2-yl)benzyl)-6-(methylamino)-7,9-dihydro-8H-purin-8-one], the IC50 was below 50 nM.

`CC(C)c1ncccc1-c1ncc2c(n1)n(Cc1cc(F)c(-c3nc(C(F)(F)F)cn3C)c(F)c1)c(=O)n2C` [Compound I-125, 9-(3,5-difluoro-4-(1-methyl-4-(trifluoromethyl)-1H-imidazol-2-yl)benzyl)-2-(2-isopropylpyridin-3-yl)-7-methyl-7,9-dihydro-8H-purin-8-one] registered an IC50 of 50 to 200 nM.

On to `CC(C)c1ccccc1-c1ncc2[nH]c(=O)n(Cc3ccc(C(=O)N(C)C)cc3)c2n1` [Compound I-355, 4-((2-(2-isopropylphenyl)-8-oxo-7,8-dihydro-9H-purin-9-yl)methyl)-N,N-dimethylbenzamide], for which the IC50 was below 50 nM.

Consider `CC(C)c1ccccc1-c1ncc2[nH]c(=O)n(C3CCC34CN(c3cccnc3)C4)c2n1` (stereo not drawn) [Compound I-495, 2-(2-isopropylphenyl)-9-(2-(pyridin-3-yl)-2-azaspiro[3.3]heptan-5-yl)-7,9-dihydro-8H-purin-8-one], for which the IC50 fell in the range of 200 to 2000 nM.

Compound `CCOc1ncccc1-c1ncc2[nH]c(=O)n(Cc3ccc(-n4cccn4)cc3)c2n1` [Compound I-19, 9-(4-(1H-pyrazol-1-yl)benzyl)-2-(2-ethoxypyridin-3-yl)-7,9-dihydro-8H-purin-8-one] registered an IC50 of 200 to 2000 nM.

Compound `Cc1cc(C)n([C@H]2CC[C@@H](Cn3c(=O)n(C)c4cnc(-c5ccccc5C(C)C)nc43)CC2)n1` [Compound I-111, 9-(((1s,4s)-4-(3,5-dimethyl-1H-pyrazol-1-yl)cyclohexyl)methyl)-2-(2-isopropylphenyl)-7-methyl-7,9-dihydro-8H-purin-8-one] had an IC50 of 50 to 200 nM.

The compound `COC(=O)c1ccccc1-c1ncc2[nH]c(=O)n(Cc3ccc(-c4nc(C(F)(F)F)cn4C)cc3)c2n1` [Compound I-524, Methyl 2-(9-(4-(1-Methyl-4-(trifluoromethyl)-1H-imidazol-2-yl)benzyl)-8-oxo-8,9-dihydro-7H-purin-2-yl)benzoate] registered an IC50 below 50 nM.

Compound `CC(C)c1ncccc1-c1ncc2[nH]c(=O)n(Cc3ccc(-c4nc(C(F)(F)F)cn4C4COC4)cc3)c2n1` [Compound I-32, 2-(2-isopropylpyridin-3-yl)-9-(4-(1-(oxetan-3-yl)-4-(trifluoromethyl)-1H-imidazol-2-yl)benzyl)-7,9-dihydro-8H-purin-8-one] came in with an IC50 of 50 to 200 nM.

Consider `CC(C)c1ccccc1-c1ncc2[nH]c(=O)n([C@H](C)c3ccc(-n4ccnn4)cc3)c2n1` [Compound I-148, (R)-9-(1-(4-(1H-1,2,3-triazol-1-yl)phenyl)ethyl)-2-(2-isopropylphenyl)-7,9-dihydro-8H-purin-8-one], for which the half-inhibitory concentration (IC50) is 200 to 2000 nM.

Source of the values: patent US10189841B2, “Purinones as ubiquitin-specific protease 1 inhibitors” (Forma Therapeutics, Inc., priority 2015, dated 2019).
